Reference: EP2039702A2, “Prodrugs erbeta-selective substances, method for their production and pharmaceutical compounds containing these compositions” (Bayer Schering Pharma Aktiengesellschaft, priority 2005, dated 2007)

Molecular target: humaner Carboanhydrase II (Homo sapiens, UniProt P00918)
Experiment: Carbonic anhydrase inhibition, photometric, nitrophenyl acetate conversion on microtitre plates
Assay type: biochemical
Conditions: humane Carboanhydrase II; read-out: CAII IC50
Text: Photometrische Bestimmung der Hemmung von humaner Carboanhydrase I oder II durch Sulfonamide oder Sulfamate auf Mikrotiterplatten mit Hilfe der enzymatischen Umwandlung von Nitrophenylacetat mit einem Farbumschlag von farblos nach gelb. Tabelle 1: IC50 Hemmwerte humaner Carboanhydrase I und II

With C[C@]12CC[C@@H]3c4ccc(OS(N)(=O)=O)cc4CC[C@H]3[C@@H]1CC[C@@H]2O [Estradiol-3-sulfamat] the IC50 was 21.6 ± 1.5 nM.
